test system: Brassica rapa subsp. oleifera; test: Inhibition of Brassica rapa subsp. oleifera root growth assessed as reduction of root length at 5 x 10^-5 M after 7 days by germination assay relative to control; assay type: functional; conditions: 168 h

Row | SMILES | inhibition at 50 µM [%]
1 | Cc1cnc(NC(=O)C(Cc2ccco2)NC(=O)CCl)s1 (centres undefined) | 20
2 | O=C(CCl)NC(Cc1ccco1)C(=O)Nc1nc2ccccc2s1 (centres undefined) | 58
3 | O=C(CCl)NC(Cc1ccco1)C(=O)Nc1nc2c(Cl)cccc2s1 (centres undefined) | 42
4 | CCOc1ccc2nc(NC(=O)C(Cc3ccco3)NC(=O)CCl)sc2c1 (centres undefined) | 34
5 | O=C(CCl)NC(Cc1ccco1)C(=O)Nc1ccccc1 (centres undefined) | 52
6 | O=C(CCl)NC(Cc1ccco1)C(=O)Nc1cccc(F)c1 (centres undefined) | 33
7 | O=C(CCl)NC(Cc1ccco1)C(=O)Nc1ccc(F)cc1 (centres undefined) | 37
8 | O=C(CCl)NC(Cc1ccco1)C(=O)Nc1cccc(Cl)c1 (centres undefined) | 30
9 | O=C(CCl)NC(Cc1ccco1)C(=O)Nc1ccc(Cl)cc1 (centres undefined) | 19
10 | O=C(CCl)NC(Cc1ccco1)C(=O)Nc1cccc(Br)c1 (centres undefined) | 42
11 | O=C(CCl)NC(Cc1ccco1)C(=O)Nc1ccc(Br)cc1 (centres undefined) | 29
12 | CCc1ccccc1NC(=O)C(Cc1ccco1)NC(=O)CCl (centres undefined) | 20
13 | CCc1cccc(NC(=O)C(Cc2ccco2)NC(=O)CCl)c1 (centres undefined) | 35
14 | CCc1ccc(NC(=O)C(Cc2ccco2)NC(=O)CCl)cc1 (centres undefined) | 41
15 | CCc1cccc(CC)c1NC(=O)C(Cc1ccco1)NC(=O)CCl (centres undefined) | 76
16 | CCc1cccc(C)c1NC(=O)C(Cc1ccco1)NC(=O)CCl (centres undefined) | 67
17 | Cc1cccc(C)c1NC(=O)C(Cc1ccco1)NC(=O)CCl (centres undefined) | 62
18 | O=C(CCl)NC(Cc1ccco1)C(=O)Nc1nccs1 (centres undefined) | 57
19 | O=C(CCl)NC(Cc1ccco1)C(=O)Nc1ncc(Br)s1 (centres undefined) | 69
20 | O=C(CCl)NC(Cc1ccco1)C(=O)Nc1ncc([N+](=O)[O-])s1 (centres undefined) | 37
21 | Cc1csc(NC(=O)C(Cc2ccco2)NC(=O)CCl)n1 (centres undefined) | 56
22 | Cc1nc(NC(=O)C(Cc2ccco2)NC(=O)CCl)sc1C (centres undefined) | 25
23 | O=C(CCl)NC(Cc1ccco1)C(=O)Nc1nc(-c2ccc(Cl)cc2)cs1 (centres undefined) | 52
24 | O=C(O)COc1ccc(Cl)cc1Cl [2,4-DICHLOROPHENOXYACETIC ACID] | 97
